Assay results published in US5707855A (priority 1996, dated 1998).
In brackets after ≈: the same amount, converted by molar mass.

What was measured:
E. cloacae 218R1 [1] = experiment: Lysozyme lysis assay (outer membrane permeabilization); type: cell-based; conditions: 50 μg/ml lysozyme; decrease in OD600
Experimental: (§1) Membrane permeabilization by polycationic compounds was measured in two different assays. The first assay measured membrane disruption by the ability of lysozyme to reach the periplasm and cause cell lysis. […] The uptake of lysozyme into whole cells due to membrane permeabilization by various compounds was previously described in Hancock, et al., Antimicrobial Agents and Chemo., 19:777, 1981. Overnight cultures of P. aeruginosa H309 or E. cloacae 218R1 grown in LB-S were diluted 1 in 50 in fresh medium and grown to an OD600 =0.5-0.6. The cells were harvested in a Silencer H-103N clinical centrifuge at 1800 g for 10 min, washed once with one volume of assay buffer (5 mM HEPES pH 7.2, 5 mM KCN), and resuspended in the same buffer to an OD600 of 0.5. Assays consisted of 600 μl of cells with 50 μg/ml of chicken egg white lysozyme and varying concentrations of cationic compounds. Cell lysis was measured as a decrease in the OD600 in a Perkin-Elmer dual beam spectrophotometer. Parallel experiments performed without lysozyme enabled the measurement of the lytic activity of the compounds themselves. To test whether or not permeability to lysozyme could be inhibited by divalent cations, various concentrations of MgCl2 were added to the assay after the addition of lysozyme and before the addition of the test compound.

P. AERUGINOSA H309 [2] = experiment: as above; type: cell-based; conditions: for Permeabilization of the outer membrane to lysozyme, compared with polymyxin B: 50 μg/ml lysozyme, decrease in OD600
Experimental: as §1

P. aeruginosa H103 LPS = experiment: Dansyl polymyxin (DPx) displacement from purified LPS; type: binding; conditions: on a μM basis
Experimental: In this assay, DPx was incubated with LPS to saturate the binding sites and then, while polycationic compounds are titrated into the reaction, displacement of the DPx was monitored by the decrease in fluorescence (FIG. 9).
The method of Moore, et al., (Antimicrobial Agents and Chemo., 29:496, 1987), was used to test how much DPx was needed to saturate the binding sties on LPS. Briefly, 5 μl samples of 100 μM DPx were titrated sequentially into 1 ml of 3 μg/ml of LPS until a maximum fluorescence was reached. The fluorescence was measured in a Perkin-Elmer 650-10S fluorescence spectrophotometer with an excitation wavelength of 340 nm and an emission wavelength of 485 nm using slit widths of 5 nm. […] For the binding inhibition assays (Moore, et al., Antimicrobial Agents and Chemo., 29:496, 1987), 2.5 μM DPx was added to 3 μg/ml of H103 LPS in 5 mM HEPES pH 7.2. The test compounds were added 5 μl at a time and the decrease in fluorescence due to displacement of the DPx from the LPS was recorded.

E. cloacae 218R1 [3] = type: cell-based; conditions: 10 μM NPN; fluorescence increase
Description: (§2) The second assay determined membrane permeability by the ability of 1-N-phenylnaphthylamine (NPN), a small fluorescent probe, to insert itself into the membrane. Normally, very little NPN can penetrate the outer membrane, but in the presence of a membrane permeabilizer it can insert into the hydrophobic membrane resulting in an increase in fluorescence (FIGS. 7 and 8). This N-phenylnaphthylamine uptake assay was previously described by Loh, et al., Antimicrobial Agents and Chemo., 26:546, 1984. Cells were prepared exactly the same as for the lysozyme lysis assay. 1-N-phenylnaphthylamine (NPN) was dissolved in acetone at a concentration of 500 μM. NPN fluorescence was measured in a Perkin-Elmer 650-10S fluorescent spectrophotometer using excitation and emission wavelengths set to 350 nm and 420 nm respectively, with slit widths of 5 nm. The assay was standardized by adding 20 μl of NPN (final concentration of 10 μM) and 10 μl of 0.64 mg/ml of polymyxin B (final concentration of 6.4 μg/ml) into 1 ml of cells, and adjusting the resulting fluorescence to read 90% deflection (90 arbitrary units). Various compounds were tested by adding 10 μl of different concentrations to a cuvette containing 1 ml of cells and 10 μM NPN. Permeabilizing activity was designated as the total fluorescence minus the fluorescence due to NPN alone. Following the fluorescence measurement, the OD600 of the cells was taken to ensure no significant cell lysis had occurred.

P. AERUGINOSA H309 [4] = type: cell-based; conditions: 10 μM NPN; fluorescence increase
Description: as §2

[5] = MICs of common antibiotics in the presence of sub-MIC levels of cationic peptides; type: cell-based
Experimental: (§3) The minimum inhibitory concentrations of (MIC) of CEME, CEMA and melittin were determined for a number of different bacteria (Table 2). Briefly, cells were grown overnight at 37° C. in LB-S (Luria broth without any salt supplement) and diluted one in 10,000 in the same medium to give concentrations of about 10^4 to 10^5 CFU/ml. The broth dilutions were set up in a 96 well microtiter plate by putting 200 μl of LB-S containing the initial concentration of antibiotic or compound in column 1 and 100 μl of the same medium in columns 2-12. The compounds were diluted by taking 100 μl of broth from column 1 and mixing it with column 2, resulting in a one in two dilution. This was continued to column 10. Finally, 10 μl of bacteria were pipetted into columns 1-11, and the plates incubated overnight at 37° C. The next day the plates were scored for growth in the wells, and the MIC determined.
The ability of the cationic peptides to work synergystically was examined by determining the MIC values for some commonly used antibiotics in the presence of sub-MIC levels of cationic peptides (Table 4). […] This may be due to the high membrane permeabilizing activity of CEMA (see below). However, the peptides did lower the MIC of polymyxin B, possibly due to the fact that they are all taken up by the same pathway and are therefore aiding each other's uptake. Of interest is the influence that melittin has on the MIC of polymyxin B, given the […] membrane permeabilizing activity of melittin.

P. aeruginosa = type: cell-based; conditions: against many bacterial species
Experimental: as §3

E. cloacae = type: cell-based; conditions: strain 218S, Parent of 218R1
Experimental: as §3

S. typhimurium = type: cell-based; conditions: C590 versus C587
Experimental: as §3

E. coli = type: cell-based; conditions: strain UB1005, Parent of DC2
Experimental: as §3

P. AERUGINOSA H309 [6] = type: cell-based; conditions: +80 mM Na+
Experimental: as §3, with “Briefly,” for “The minimum inhibitory concentrations of (MIC) of CEME, CEMA and melittin were determined for a number of different bacteria (Table 2). Briefly,”

E. coli strain DC2 = experiment: Acid-urea gel overlay antibacterial activity; type: cell-based; conditions: 15% acid-urea gel overlaid with agar containing ≈10^5 cells, overnight at 37° C.
Experimental: A sample of the partially purified CEME protein was electrophoresed on a 15% acid-urea gel, which separates proteins based on charge and mass (Panyim and Chalkey, Arch. Biochem Biophys., 130:337, 1969). The pH of the buffer is acidic (≈pH 5.0) and the polarity is reversed such that proteins migrate to the cathode. Therefore, the small cationic peptides run relatively quickly through the gel and thus can be easily identified. Antibacterial activity was tested as previously described (Hultmark, Eur. J. Biochem., 106:7, 1980). The gel was incubated in Mueller Hinton broth+0.2M NaPO4 pH 7.4 for 1 hr. It was overlaid with mls of the same media containing 0.6% agar and≈10^5 E. coli strain DC2, and then again with ml of the same media containing only 0.6% agar. […] Melittin is used as a positive control due to its antibacterial activity and similarity in size and PI values.

CC[C@H](C)[C@H](NC(=O)CNC(=O)[C@@H](NC(=O)[C@H](CCCCN)NC(=O)[C@H](CCCCN)NC(=O)[C@H](Cc1ccccc1)NC(=O)[C@H](CC(C)C)NC(=O)[C@H](CCCCN)NC(=O)[C@H](Cc1c[nH]c2ccccc12)NC(=O)[C@@H](N)CCCCN)[C@@H](C)CC)C(=O)NCC(=O)N[C@@H](C)C(=O)N[C@H](C(=O)N[C@@H](CC(C)C)C(=O)N[C@@H](CCCCN)C(=O)N[C@H](C(=O)N[C@@H](CC(C)C)C(=O)N[C@H](C(=O)N[C@H](C(=O)NCC(=O)N[C@@H](CC(C)C)C(=O)N1CCC[C@H]1C(=O)N[C@@H](C)C(=O)N[C@@H](CC(C)C)C(=O)N[C@@H](CCCCN)C(=O)N[C@@H](CC(C)C)C(=O)N[C@H](C(=O)N[C@@H](CCCCN)C(=O)O)[C@@H](C)O)[C@@H](C)O)[C@@H](C)O)C(C)C)C(C)C [CEMA]
Permeabilization of the outer membrane to lysozyme, compared with polymyxin B (E. cloacae 218R1 [1]): stronger permeabilizer for lysozyme than polymyxin B | Permeabilization of the outer membrane to lysozyme, compared with polymyxin B (P. AERUGINOSA H309 [2]): stronger permeabilizer for lysozyme than polymyxin B | Affinity for LPS compared with polymyxin B (P. aeruginosa H103 LPS): higher affinity for LPS than polymyxin B | Activity in opening up the membrane to NPN (E. cloacae 218R1 [3]): equally active | Activity in opening up the membrane to NPN (P. AERUGINOSA H309 [4]): equally active | Reduction of the MICs of ceftazidime, imipenem and tetracycline ([5]; peptide at 1/2 MIC levels): 2 fold | Antibiotic activity compared with CEME (P. aeruginosa): two-fold improved antibiotic activity | MIC (E. cloacae): 2.8 µg/mL (≈ 0.913 µM) | Sensitivity of defensin sensitive strain C590 relative to parent (MIC change) (S. typhimurium): four-fold more sensitive | MIC (E. coli): 2.8 µg/mL (≈ 0.913 µM)

CC(C)(O/N=C(\C(=O)N[C@@H]1C(=O)N2C(C(=O)[O-])=C(C[n+]3ccccc3)CS[C@H]12)c1csc(N)n1)C(=O)O [Ceftazidime, ceftazidime]
MIC (P. AERUGINOSA H309 [6]): 2 µg/mL (≈ 3.66 µM) | MIC of antibiotic in the presence of CEMA ([5]; CEMA 0.7 μg/ml): 2 µg/mL | MIC of antibiotic in the presence of CEMA ([5]; CEMA 1.4 μg/ml): 2 µg/mL | MIC of antibiotic in the presence of CEME ([5]; CEME 0.6 μg/ml): 4 µg/mL | MIC of antibiotic in the presence of CEME ([5]; CEME 1.2 μg/ml): 4 µg/mL | MIC of antibiotic in the presence of Melittin ([5]; Melittin 2 μg/ml): 4 µg/mL | MIC of antibiotic in the presence of Melittin ([5]; Melittin 4 μg/ml): 2 µg/mL | MIC of antibiotic ([5]; No peptide): 4 µg/mL | Sensitivity of defensin sensitive strain C590 relative to parent (MIC change) (S. typhimurium): unchanged

CC[C@H](C)[C@H](NC(=O)CN)C(=O)NCC(=O)N[C@@H](C)C(=O)N[C@H](C(=O)N[C@@H](CC(C)C)C(=O)N[C@@H](CCCCN)C(=O)N[C@H](C(=O)N[C@@H](CC(C)C)C(=O)N[C@H](C(=O)N[C@H](C(=O)NCC(=O)N[C@@H](CC(C)C)C(=O)N1CCC[C@H]1C(=O)N[C@@H](C)C(=O)N[C@@H](CC(C)C)C(=O)N[C@H](C(=O)N[C@@H](CO)C(=O)N[C@@H](Cc1c[nH]c2ccccc12)C(=O)N[C@H](C(=O)N[C@@H](CCCCN)C(=O)N[C@@H](CCCNC(=N)N)C(=O)N[C@@H](CCCCN)C(=O)N[C@@H](CCCNC(=N)N)C(=O)N[C@@H](CCC(N)=O)C(=O)N[C@@H](CCC(N)=O)C(N)=O)[C@@H](C)CC)[C@@H](C)CC)[C@@H](C)O)[C@@H](C)O)C(C)C)C(C)C [Melittin, melittin]
Permeabilization of the outer membrane to lysozyme, compared with polymyxin B (P. AERUGINOSA H309 [2]): did not appear to be a good permeabilizer | Cell lysis in the absence of lysozyme (P. AERUGINOSA H309 [2]; increased concentrations of peptide): cell lysis in the absence of lysozyme occurred | Permeabilizer activity relative to gentamicin (P. AERUGINOSA H309 [2]; lysozyme lysis assay): 5- to 10 fold | Affinity for LPS compared with polymyxin B (P. aeruginosa H103 LPS): slightly lower affinities | Activity in opening up the membrane to NPN (P. AERUGINOSA H309 [4]): less active | Sensitivity of defensin sensitive strain C590 relative to parent (MIC change) (S. typhimurium): two-fold more sensitive | Antibacterial activity in overlaid gel (E. coli strain DC2): zones of clearing
